Like-named read-outs stand apart in the source and are kept apart here.
Experiments:
human D2long receptor = target: T1, human D2long receptor (Homo sapiens, UniProt P14416); assay: radioligand binding with [^3H]spiperone, D2long; conditions: read-out: Ki D2lo
T1 construct: expressed in transfected cells; host or cells: Chinese hamster ovary (CHO) cells, membranes
Method: (§1) For the determination of binding affinity to the receptors of the dopamine D2 family membranes were established carrying the human D2long, D2short, D3 or D4.4 receptor subtype expressed in Chinese hamster ovary cell lines. In principle, the binding experiments started when incubating an appropriate amount of membrane with the radioligand [^3H]spiperone and the particular test compounds diluted in a wide range of different concentrations from subnanomolar up to micromolar.

human D2short receptor = target: T2, human D2short receptor (Homo sapiens, UniProt P14416); assay: radioligand binding with [^3H]spiperone, D2short; conditions: read-out: Ki D2sh
T2 construct: expressed in transfected cells; host or cells: Chinese hamster ovary (CHO) cells, membranes
T2 sequence (P14416 1-414 isoform P14416-2): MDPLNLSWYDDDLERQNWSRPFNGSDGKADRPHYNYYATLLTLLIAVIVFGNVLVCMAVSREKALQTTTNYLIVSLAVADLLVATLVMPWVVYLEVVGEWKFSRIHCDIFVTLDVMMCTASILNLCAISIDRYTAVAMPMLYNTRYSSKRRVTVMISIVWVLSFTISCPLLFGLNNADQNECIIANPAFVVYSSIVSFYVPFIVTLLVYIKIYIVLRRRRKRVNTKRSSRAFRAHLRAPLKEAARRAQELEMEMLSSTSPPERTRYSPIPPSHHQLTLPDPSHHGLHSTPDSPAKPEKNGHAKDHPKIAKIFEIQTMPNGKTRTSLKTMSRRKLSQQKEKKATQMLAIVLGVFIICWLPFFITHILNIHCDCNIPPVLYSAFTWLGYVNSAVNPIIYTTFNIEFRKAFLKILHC
Method: as §1

human D3 receptor = target: T3, human D3 receptor (Homo sapiens, UniProt P35462); assay: radioligand binding with [^3H]spiperone, D3
T3 construct: expressed in transfected cells; host or cells: Chinese hamster ovary (CHO) cells, membranes
T3 sequence (P35462 whole entry): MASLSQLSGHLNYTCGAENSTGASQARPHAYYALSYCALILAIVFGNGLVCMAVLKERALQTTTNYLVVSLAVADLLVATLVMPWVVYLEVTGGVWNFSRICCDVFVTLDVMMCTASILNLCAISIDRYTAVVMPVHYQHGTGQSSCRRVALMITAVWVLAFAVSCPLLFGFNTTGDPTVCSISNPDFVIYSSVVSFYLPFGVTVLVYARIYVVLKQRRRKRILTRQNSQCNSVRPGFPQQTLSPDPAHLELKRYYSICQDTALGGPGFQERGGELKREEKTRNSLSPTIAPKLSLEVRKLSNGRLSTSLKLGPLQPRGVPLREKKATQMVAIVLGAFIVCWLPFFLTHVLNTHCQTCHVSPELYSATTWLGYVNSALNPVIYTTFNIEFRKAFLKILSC
Method: as §1

human D4.4 receptor = target: T4, human D4.4 receptor (Homo sapiens, UniProt P21917); assay: radioligand binding with [^3H]spiperone, D4.4
T4 construct: expressed in transfected cells; host or cells: Chinese hamster ovary (CHO) cells, membranes
T4 sequence (P21917 1-419): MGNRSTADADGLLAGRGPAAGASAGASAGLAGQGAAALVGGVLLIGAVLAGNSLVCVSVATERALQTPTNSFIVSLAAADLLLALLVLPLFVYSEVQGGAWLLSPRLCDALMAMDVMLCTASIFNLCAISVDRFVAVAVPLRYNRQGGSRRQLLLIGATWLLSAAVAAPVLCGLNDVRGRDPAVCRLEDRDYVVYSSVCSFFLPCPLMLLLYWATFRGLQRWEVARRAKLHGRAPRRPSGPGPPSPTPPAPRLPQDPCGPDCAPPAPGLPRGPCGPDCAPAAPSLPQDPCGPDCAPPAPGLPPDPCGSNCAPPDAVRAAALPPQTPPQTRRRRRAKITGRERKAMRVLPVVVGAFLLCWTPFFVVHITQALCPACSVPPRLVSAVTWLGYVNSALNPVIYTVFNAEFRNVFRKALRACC
Method: as §1

5-HT2 receptor = target: T5, 5-HT2 receptor (Sus scrofa, UniProt P50129); assay: radioligand binding, porcine cortical membranes, [^3H]ketanserin
T5 construct: membrane preparations from porcine cortical material; from tissue; host or cells: porcine cerebral cortex membranes
T5 sequence (P50129 whole entry): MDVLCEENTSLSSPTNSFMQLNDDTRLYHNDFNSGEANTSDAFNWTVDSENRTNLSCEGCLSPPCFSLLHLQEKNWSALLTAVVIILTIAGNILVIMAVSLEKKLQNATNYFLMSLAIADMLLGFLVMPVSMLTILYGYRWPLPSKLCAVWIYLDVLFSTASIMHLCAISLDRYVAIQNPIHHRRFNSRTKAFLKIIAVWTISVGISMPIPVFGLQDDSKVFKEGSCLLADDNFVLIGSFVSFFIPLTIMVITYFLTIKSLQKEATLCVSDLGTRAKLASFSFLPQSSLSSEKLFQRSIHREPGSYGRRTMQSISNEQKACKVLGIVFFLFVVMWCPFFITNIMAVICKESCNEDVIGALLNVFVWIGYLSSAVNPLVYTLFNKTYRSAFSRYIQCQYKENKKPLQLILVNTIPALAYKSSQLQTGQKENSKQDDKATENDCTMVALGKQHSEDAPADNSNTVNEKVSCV

5-HT1A receptor = target: T6, 5-HT1A receptor (Sus scrofa, UniProt A0A4X1UTF5); assay: radioligand binding, porcine cortical membranes, [^3H]8-OH-DPAT and [^3H]WAY 100635
T6 construct: membrane preparations from porcine cortical material; from tissue; host or cells: porcine cerebral cortex membranes
T6 sequence (A0A4X1UTF5 1-422): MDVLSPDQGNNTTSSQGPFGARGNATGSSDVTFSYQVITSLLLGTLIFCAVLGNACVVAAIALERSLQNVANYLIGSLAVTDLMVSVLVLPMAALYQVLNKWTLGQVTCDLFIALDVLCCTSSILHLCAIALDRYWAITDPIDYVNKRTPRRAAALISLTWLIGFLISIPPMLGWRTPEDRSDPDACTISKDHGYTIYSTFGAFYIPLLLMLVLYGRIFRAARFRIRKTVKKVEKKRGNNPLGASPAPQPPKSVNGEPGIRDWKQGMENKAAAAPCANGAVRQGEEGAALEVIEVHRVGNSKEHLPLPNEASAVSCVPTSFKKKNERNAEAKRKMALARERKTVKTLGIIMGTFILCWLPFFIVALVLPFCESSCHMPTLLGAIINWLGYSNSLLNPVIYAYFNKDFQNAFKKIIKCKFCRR

[1] = target: dopamine D2short receptor (Homo sapiens, UniProt P14416); assay: [^35S]GTPγS-incorporation assay, intrinsic activity
Chain of dopamine D2short receptor (P14416 1-414 isoform P14416-2): as the sequence (P14416 1-414 isoform P14416-2) above

[2] = [^3H]spiperone, CHO membranes, mean of 2 to 4 experiments
[3] = porcine cortical membranes, [^3H]ketanserin
[4] = read-out: D2short: [^35S]GTPγS intrinsic activity, % activity of quinpirol
[5] = read-out: D2short: [^35S]GTPγS intrinsic activity
[6] = ether alkylene linker compounds

T1 sequence (P14416 whole entry): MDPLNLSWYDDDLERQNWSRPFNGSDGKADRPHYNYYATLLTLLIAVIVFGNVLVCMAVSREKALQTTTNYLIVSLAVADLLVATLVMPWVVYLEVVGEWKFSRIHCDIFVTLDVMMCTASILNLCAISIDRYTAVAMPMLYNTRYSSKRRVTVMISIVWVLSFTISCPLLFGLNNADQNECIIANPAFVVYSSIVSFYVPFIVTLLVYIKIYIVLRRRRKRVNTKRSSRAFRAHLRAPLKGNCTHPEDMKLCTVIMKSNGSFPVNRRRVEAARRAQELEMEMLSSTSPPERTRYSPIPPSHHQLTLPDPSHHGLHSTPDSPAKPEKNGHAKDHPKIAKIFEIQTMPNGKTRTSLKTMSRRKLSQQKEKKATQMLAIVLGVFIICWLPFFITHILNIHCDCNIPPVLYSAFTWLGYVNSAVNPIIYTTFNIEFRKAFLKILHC

| SMILES | Ki (human D2long receptor; [2]) [nM] | Ki (human D2short receptor; [2]) [nM] | Ki (human D3 receptor; [2]) [nM] | Ki (human D4.4 receptor; [2]) [nM] | Ki (5-HT2 receptor; [3]) [nM] | Ki (5-HT1A receptor; porcine cortical membranes) [nM] | Emax [1, 4] [%] | melting point [°C] | Emax [1, 5] [%] | Ki (human D2long receptor; [6]) [nM] | Ki (human D2short receptor; [6]) [nM] | Ki (human D3 receptor; [6]) [nM] | Ki (human D4.4 receptor; [6]) [nM] | Ki (5-HT2 receptor; [6]) [nM] | Ki (5-HT1A receptor; [6]) [nM] |
| --- | --- | --- | --- | --- | --- | --- | --- | --- | --- | --- | --- | --- | --- | --- | --- |
| COc1ccc(N2CCN(CCCCOc3ccn4nccc4c3)CC2)cc1 [Example E18] | > 3000 | 301 to 3000 | 30 to 300 | 301 to 3000 | 301 to 3000 | 30 to 300 | < 15 | 111 |  |  |  |  |  |  |  |
| Clc1ccccc1N1CCN(CCCCOc2ccn3ncc(Cl)c3c2)CC1 [Example E47, 3-Chloro-5-[4-[4-(2-chlorophenyl)piperazin-1-yl]butoxy]pyrazolo[1,5-a]pyridine] | 30 to 300 | < 30 | < 30 | 30 to 300 | 301 to 3000 | 30 to 300 | < 15 | 63 |  |  |  |  |  |  |  |
| Oc1ccc(N2CCN(CCCCOc3ccn4nccc4c3)CC2)cc1 [Example E20, 5-[4-[4-(4-Hydroxyphenyl)piperazin-1-yl]butoxy]pyrazolo[1,5-a]pyridine] | 30 to 300 | 30 to 300 | 30 to 300 | 301 to 3000 | 301 to 3000 | > 3000 | 15 to 40 | 124 |  |  |  |  |  |  |  |
| Clc1cccc(N2CCN(CCCCOc3ccc4ccnn4c3)CC2)c1Cl [Example E51, 6-[4-[4-(2,3-Dichlorophenyl)piperazin-1-yl]butoxy]pyrazolo[1,5-a]pyridine] | < 30 | < 30 | < 30 | < 30 | 30 to 300 | 30 to 300 | < 15 | 97 |  |  |  |  |  |  |  |
| Clc1cccc(N2CCN(CCCCOc3cccc4ccnn34)CC2)c1Cl [Example E57, 7-[4-[4-(2,3-Dichlorophenyl)piperazin-1-yl]butoxy]pyrazolo[1,5-a]pyridine] | 30 to 300 | < 30 | < 30 | 30 to 300 | 30 to 300 | 30 to 300 | 15 to 40 | 74 |  |  |  |  |  |  |  |
| Clc1ccccc1N1CCN(CCCCOc2cccn3nccc23)CC1 [Example E9, 4-[4-[4-(2-Chlorophenyl)piperazin-1-yl]butoxy]pyrazolo[1,5-a]pyridine] | < 30 | < 30 | < 30 | < 30 | 301 to 3000 | < 30 |  | 88 | < 15 |  |  |  |  |  |  |
| Clc1cccc(N2CCN(CCCCOc3ccn4nccc4c3)CC2)c1Cl [Example E15, 5-[4-[4-(2,3-Dichlorophenyl)piperazin-1-yl]butoxy]pyrazolo[1,5-a]pyridine] | 30 to 300 | 30 to 300 | < 30 | 30 to 300 | 301 to 3000 | 30 to 300 | 15 to 40 | 105 |  |  |  |  |  |  |  |
| Clc1cccc(N2CCN(CCCCOc3ccn4ncc(Cl)c4c3)CC2)c1Cl [Example E45, 3-Chloro-5-[4-[4-(2,3-dichlorophenyl)piperazin-1-yl]butoxy]pyrazolo[1,5-a]pyridine] | 30 to 300 | 30 to 300 | < 30 | 30 to 300 | 301 to 3000 | 30 to 300 | 15 to 40 | 133 |  |  |  |  |  |  |  |
| ON=Cc1cnn2ccc(OCCCCN3CCN(c4ccccc4Cl)CC3)cc12 [Example E32, (s-trans) 5-[4-[4-(2-Chlorophenyl)piperazin-1-yl]butoxy[pyrazolo[1,5-a]pyridine-3-carbaldehyde oxime] | < 30 | < 30 | < 30 | < 30 | 30 to 300 | < 30 | 15 to 40 | 174 |  |  |  |  |  |  |  |
| O=Cc1cnn2cccc(OCCCCN3CCN(c4cccc(Cl)c4Cl)CC3)c12 [Example E10, 4-[4-[4-(2,3-Dichlorophenyl)piperazin-1-yl]butoxy]pyrazolo[1,5-a]pyridine-3-carbaldehyde] | < 30 | < 30 | < 30 | 30 to 300 | 30 to 300 | 30 to 300 |  | 128 | 15 to 40 |  |  |  |  |  |  |
| O=Cc1cnn2ccc(OCCCCN3CCN(c4ccccc4Cl)CC3)cc12 [Example E23, 5-[4-[4-(2-Chlorophenyl)piperazin-1-yl]butoxy]pyrazolo[1,5-a]pyridine-3-carbaldehyde] | < 30 | < 30 | < 30 | < 30 | 301 to 3000 | < 30 | 15 to 40 | 116 |  |  |  |  |  |  |  |
| O=Cc1c(OCCCCN2CCN(c3ccccc3Cl)CC2)nn2ccccc12 [Example E6, 2-[4-[4-(2-Chlorophenyl)piperazin-1-yl]butoxy]pyrazolo[1,5-a]pyridine-3-carbaldehyde] | < 30 | 30 to 300 | < 30 | 30 to 300 | 301 to 3000 | < 30 |  | 104 | 15 to 40 |  |  |  |  |  |  |
| COc1ccc(N2CCN(CCCCOc3ccn4ncc(C=O)c4c3)CC2)cc1 [Example E24, 5-[4-[4-(4-Methoxyphenyl)piperazin-1-yl]butoxy]pyrazolo[1,5-a]pyridine-3-carbaldehyde] | 30 to 300 | 30 to 300 | 301 to 3000 | 301 to 3000 | > 3000 | 30 to 300 | < 15 | 114 |  |  |  |  |  |  |  |
| O=Cc1cnn2cc(OCCCCN3CCN(c4cccc(Cl)c4Cl)CC3)ccc12 [Example E54, 6-[4-[4-(2,3-Dichlorophenyl)piperazin-1-yl]butoxy]pyrazolo[1,5-a]pyridine-3-carbaldehyde] | < 30 | < 30 | < 30 | < 30 | 30 to 300 | < 30 | < 15 | 99 |  |  |  |  |  |  |  |
| Clc1cccc(N2CCN(CCCCOc3ccn4ncc(I)c4c3)CC2)c1Cl [Example E48, 5-[4-[4-(2,3-Dichlorophenyl)piperazin-1-yl]butoxy]3-iodo-pyrazolo[1,5-a]pyridine] | 30 to 300 | < 30 | < 30 | 30 to 300 | 301 to 3000 | 301 to 3000 | < 15 | 110 |  |  |  |  |  |  |  |
| Clc1cccc(N2CCN(CCCCOc3cccn4nccc34)CC2)c1Cl [Example E7, 4-[4-[4-(2,3-Dichlorophenyl)piperazin-1-yl]butoxy]pyrazolo[1,5-a]pyridine] | < 30 | < 30 | < 30 | < 30 | 301 to 3000 | 30 to 300 | < 15 | 91 |  |  |  |  |  |  |  |
| Clc1cccc(N2CCN(CCCCOc3cc4ccccn4n3)CC2)c1Cl [Example E1, 2-[4-[4-(2,3-Dichlorophenyl)piperazin-1-yl]butoxy]pyrazolo[1,5-a]pyridine] | < 30 | < 30 | < 30 | 30 to 300 | 30 to 300 | < 30 | < 15 | 161 |  | 9.4 | 10 | 3.5 | 33 | 150 | 17 |
| N#Cc1cnn2ccc(OCCCCN3CCN(c4ccccc4Cl)CC3)cc12 [Example E38, 5-[4-[4-(2-Chlorophenyl)piperazin-1-yl]butoxy]pyrazolo[1,5-a]pyridine-3-carbonitrile] | < 30 | < 30 | < 30 | < 30 | 30 to 300 | < 30 | 15 to 40 | 119 |  |  |  |  |  |  |  |

Reference: patent US20100168125A1, “INDOLIZINES AND AZA-ANALOG DERIVATIVES THEREOF AS CNS ACTIVE COMPOUNDS” (priority 2007, published 2010)
